Data reported in patent US9873704B2, “Heterocyclic compounds and their uses” (Amgen Inc., priority 2009, dated 2018).

Target: T1, PI3Kδ (Homo sapiens, UniProt O00329)
T1 construct: Full length p110 subunits of PI3k α, β and δ, N-terminally labeled with polyHis tag; polyHis (N); made in house; host or cells: Sf9 insect cells (baculovirus)
Test: PI3Kδ Alphascreen assay
Assay type: biochemical
Settings: not given
Method: Full length p110 subunits of PI3k α, β and δ, N-terminally labeled with polyHis tag, were coexpressed with p85 with Baculo virus expression vectors in sf9 insect cells. P110/p85 heterodimers were purified by sequential Ni-NTA, Q-HP, Superdex-100 chromatography. Purified α, β and δ isozymes were stored at −20° C. in 20 mM Tris, pH 8, 0.2M NaCl, 50% glycerol, 5 mM DTT, 2 mM Na cholate. […] The γ isozyme was purified by sequential Ni-NTA, Superdex-200, Q-HP chromatography. The γ isozyme was stored frozen at −80° C. in NaH2PO4, pH 8, 0.2M NaCl, 1% ethylene glycol, 2 mM β-mercaptoethanol.
A PI3K Alphascreen® assay (PerkinElmer, Waltham, Mass.) was used to measure the activity of a panel of four phosphoinositide 3-kinases: PI3Kα, PI3Kβ, PI3Kγ, and PI3Kδ. Enzyme reaction buffer was prepared using sterile water (Baxter, Deerfield, Ill.) and 50 mM Tris HCl pH 7, 14 mM MgCl2, 2 mM sodium cholate, and 100 mM NaCl. 2 mM DTT was added fresh the day of the experiment. The Alphascreen buffer was made using sterile water and 10 mM Tris HCl pH 7.5, 150 mM NaCl, 0.10% Tween 20, and 30 mM EDTA. 1 mM DTT was added fresh the day of the experiment. Compound source plates used for this assay were 384-well Greiner clear polypropylene plates containing test compounds at 5 mM and diluted 1:2 over 22 concentrations. Columns 23 and 24 contained only DMSO as these wells comprised the positive and negative controls, respectively. Source plates were replicated by transferring 0.5 uL per well into 384-well Optiplates (PerkinElmer, Waltham, Mass.).
Each PI3K isoform was diluted in enzyme reaction buffer to 2× working stocks. […] PI(4,5)P2 (Echelon Biosciences, Salt Lake City, Utah) was diluted to 10 μM and ATP was diluted to 20 μM. This 2× stock was used in the assays for PI3Kα and PI3Kβ. For assay of PI3Kγ and PI3Kδ, PI(4,5)P2 was diluted to 10 μM and ATP was diluted to 8 μM to prepare a similar 2× working stock. Alphascreen reaction solutions were made using beads from the anti-GST Alphascreen kit (PerkinElmer, Waltham, Mass.). Two 4× working stocks of the Alphascreen reagents were made in Alphascreen reaction buffer. In one stock, biotinylated-IP4 (Echelon Biosciences, Salt Lake City, Utah) was diluted to 40 nM and streptavidin-donor beads were diluted to 80 μg/mL. In the second stock, PIP3-binding protein (Echelon Biosciences, Salt Lake City, Utah) was diluted to 40 nM and anti-GST-acceptor beads were diluted to 80 μg/mL.
10 μL/well of the appropriate substrate 2× stock (containing 20 μM ATP for the PI3Kα and β assays and containing 8 μM ATP for the PI3Kγ and δ assays) was then added to Columns 1-24 of all plates. Plates were then incubated at room temperature for 20 minutes. In the dark, 10 μL/well of the donor bead solution was added to columns 1-24 of the plates to quench the enzyme reaction. The plates were incubated at room temperature for 30 minutes. Still in the dark, 10 μL/well of the acceptor bead solution was added to columns 1-24 of the plates. The plates were then incubated in the dark for 1.5 hours. The plates were read on an Envision multimode Plate Reader (PerkinElmer, Waltham, Mass.) using a 680 nm excitation filter and a 520-620 nm emission filter.

T1 sequence (O00329 whole entry): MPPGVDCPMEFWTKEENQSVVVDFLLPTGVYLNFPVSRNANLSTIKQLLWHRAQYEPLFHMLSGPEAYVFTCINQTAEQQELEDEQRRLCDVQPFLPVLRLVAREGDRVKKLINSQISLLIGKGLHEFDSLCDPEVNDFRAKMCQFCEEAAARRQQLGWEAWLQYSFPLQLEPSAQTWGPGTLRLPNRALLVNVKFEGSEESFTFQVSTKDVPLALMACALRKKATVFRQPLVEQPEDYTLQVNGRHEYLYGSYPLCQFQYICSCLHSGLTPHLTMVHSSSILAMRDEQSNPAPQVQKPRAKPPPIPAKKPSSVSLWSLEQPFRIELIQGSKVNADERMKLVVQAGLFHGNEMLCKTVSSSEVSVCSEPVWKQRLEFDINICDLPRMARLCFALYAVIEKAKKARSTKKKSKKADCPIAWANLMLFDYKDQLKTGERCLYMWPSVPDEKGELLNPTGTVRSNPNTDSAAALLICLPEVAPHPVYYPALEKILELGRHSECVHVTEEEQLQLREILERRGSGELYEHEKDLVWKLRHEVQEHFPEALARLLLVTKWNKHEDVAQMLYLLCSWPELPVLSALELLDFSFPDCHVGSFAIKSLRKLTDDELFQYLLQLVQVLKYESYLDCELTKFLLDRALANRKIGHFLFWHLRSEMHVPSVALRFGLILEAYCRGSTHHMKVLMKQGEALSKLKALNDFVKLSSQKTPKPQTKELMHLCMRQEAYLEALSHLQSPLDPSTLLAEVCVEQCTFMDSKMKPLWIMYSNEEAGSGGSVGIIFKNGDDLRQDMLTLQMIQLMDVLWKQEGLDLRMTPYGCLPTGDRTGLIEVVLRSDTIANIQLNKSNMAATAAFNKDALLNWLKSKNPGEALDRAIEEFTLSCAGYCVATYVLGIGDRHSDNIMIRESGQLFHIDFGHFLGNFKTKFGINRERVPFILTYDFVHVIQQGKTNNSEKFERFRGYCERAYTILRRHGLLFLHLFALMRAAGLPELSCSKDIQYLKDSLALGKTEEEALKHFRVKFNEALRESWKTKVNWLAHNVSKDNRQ
T1 sequence (P27986 whole entry partner): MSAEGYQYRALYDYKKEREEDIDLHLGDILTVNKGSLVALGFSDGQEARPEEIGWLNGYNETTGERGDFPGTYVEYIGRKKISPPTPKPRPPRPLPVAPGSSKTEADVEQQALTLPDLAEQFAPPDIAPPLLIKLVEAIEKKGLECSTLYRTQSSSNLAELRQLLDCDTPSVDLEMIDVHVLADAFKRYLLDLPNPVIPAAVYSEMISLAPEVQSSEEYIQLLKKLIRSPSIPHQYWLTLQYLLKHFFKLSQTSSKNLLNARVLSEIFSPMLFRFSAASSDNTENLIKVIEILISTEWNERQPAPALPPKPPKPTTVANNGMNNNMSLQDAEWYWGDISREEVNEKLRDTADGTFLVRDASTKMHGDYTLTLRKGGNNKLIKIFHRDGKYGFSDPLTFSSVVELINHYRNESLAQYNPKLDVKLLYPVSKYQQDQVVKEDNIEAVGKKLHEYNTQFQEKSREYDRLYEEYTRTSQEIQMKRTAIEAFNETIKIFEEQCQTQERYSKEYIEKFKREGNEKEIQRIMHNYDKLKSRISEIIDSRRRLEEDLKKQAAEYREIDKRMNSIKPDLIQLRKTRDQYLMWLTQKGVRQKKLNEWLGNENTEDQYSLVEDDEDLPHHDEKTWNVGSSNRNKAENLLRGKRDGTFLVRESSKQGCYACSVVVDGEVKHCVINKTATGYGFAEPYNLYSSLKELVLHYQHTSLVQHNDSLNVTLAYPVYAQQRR

`CC(Nc1ncnc(N)c1C#N)c1nc2ccc(F)cc2c(N2CC(O)C2)c1-c1ccccn1` (stereo not shown) [4-Amino-6-(1-(6-fluoro-4-(3-hydroxyazetidin-1-yl)-3-(pyridin-2-yl)quinolin-2-yl)ethylamino)pyrimidine-5-carbonitrile] and `CC(Nc1ncnc(N)c1C#N)c1nc2ccc(F)cc2c(N(C)C)c1-c1ccccn1` (stereo not shown) [4-amino-6-(1-(4-(dimethylamino)-6-fluoro-3-(pyridin-2-yl)quinolin-2-yl)ethylamino)pyrimidine-5-carbonitrile] are within 1.5-fold of each other in Ki: 1.78 nM for the first, 1.4 nM for the second.

Going from `COCCNc1c(-c2ccccc2)c(C(C)Nc2ncnc(N)c2C#N)nc2ccc(F)cc12` (stereo not shown) [4-Amino-6-(1-(6-fluoro-4-((2-methoxyethyl)amino)-3-phenyl-2-quinolinyl)-ethyl)amino)-5-pyrimidinecarbonitrile] to `COCCNc1c(-c2ccccc2)c([C@@H](C)Nc2ncnc(N)c2C#N)nc2ccc(F)cc12` [4-Amino-6-(((1R)-1-(6-fluoro-4-((2-methoxyethyl)amino)-3-phenyl-2-quinolinyl)ethyl)amino)-5-pyrimidinecarbonitrile], the Ki rises from 1.35 nM to 62.2 nM (46-fold). The first binds more tightly here.

Going from `CC(Nc1ncnc(N)c1C#N)c1nc2ccc(F)cc2c(CS(C)(=O)=O)c1-c1ccccc1` (stereo not shown) [4-Amino-6-(1-(6-fluoro-4-(methylsulfonylmethyl)-3-phenylquinolin-2-yl)-ethylamino)pyrimidine-5-carbonitrile] to `CC(Nc1ncnc(N)c1C#N)c1nc2ccc(F)cc2c(NCCS(C)(=O)=O)c1-c1ccccc1` (stereo not shown) [4-Amino-6-((1-(6-fluoro-4-((2-(methylsulfonyl)ethyl)amino)-3-phenyl-2-quinolinyl)ethyl)amino)-5-pyrimidinecarbonitrile], the Ki falls from 1.38 nM to 0.463 nM (3-fold).

Compared with `CC(Nc1ncnc(N)c1C#N)c1nc2ccc(F)cc2c(C(=O)N2CCCC2)c1-c1ccccc1` (stereo not shown) [4-Amino-6-((1-(6-fluoro-3-phenyl-4-(1-pyrrolidinylcarbonyl)-2-quinolinyl)-ethyl)amino)-5-pyrimidinecarbonitrile], `CC(Nc1ncnc(N)c1C#N)c1nc2ccc(F)cc2c(C(=O)N2CCOCC2)c1-c1ccccc1` (stereo not shown) [4-Amino-6-((-1-(6-fluoro-4-(4-morpholinylcarbonyl)-3-phenyl-2-quinolinyl)-ethyl)amino)-5-pyrimidinecarbonitrile] is 2.5-fold lower in Ki: 7.06 nM for the first, 2.88 nM for the second. The second binds more tightly here.

Compared with `CC(Nc1ncnc(N)c1C#N)c1nc2ccc(F)cc2c(NCCO)c1-c1ccccc1` (stereo not shown) [4-Amino-6-((1-(6-fluoro-4-((2-hydroxyethyl)amino)-3-phenyl-2-quinolinyl)ethyl)amino)-5-pyrimidinecarbonitrile], `COCCNc1c(-c2ccccc2)c([C@H](C)Nc2ncnc(N)c2C#N)nc2ccc(F)cc12` [4-Amino-6-(((1S)-1-(6-fluoro-4-((2-methoxyethyl)amino)-3-phenyl-2-quinolinyl)ethyl)amino)-5-pyrimidinecarbonitrile] is 1.5-fold higher in Ki: 0.396 nM for the first, 0.61 nM for the second. The first binds more tightly here.

Going from `COC1CN(C(=O)c2c(-c3ccccc3)c(C(C)Nc3ncnc(N)c3C#N)nc3ccc(F)cc23)C1` (stereo not shown) [4-Amino-6-((1-(6-fluoro-4-((3-methoxy-1-azetidinyl)carbonyl)-3-phenyl-2-quinolinyl)ethyl)amino)-5-pyrimidinecarbonitrile] to `CC(Nc1ncnc(N)c1C#N)c1nc2ccc(F)cc2c(C(=O)N2CC[C@@H](O)C2)c1-c1ccccc1` (stereo partly drawn) [4-Amino-6-((1-(6-fluoro-4-(((3R)-3-hydroxy-1-pyrrolidinyl)carbonyl)-3-phenyl-2-quinolinyl)ethyl)amino)-5-pyrimidinecarbonitrile], the Ki rises from 1.75 nM to 25.6 nM (15-fold).

`CC(Nc1ncnc(N)c1C#N)c1nc2ccc(F)cc2c(C(=O)N2CCN(C)CC2)c1-c1ccccc1` (stereo not shown) [4-Amino-6-((1-(6-fluoro-4-((4-methyl-1-piperazinyl)carbonyl)-3-phenyl-2-quinolinyl)ethyl)amino)-5-pyrimidinecarbonitrile] and `CC(Nc1ncnc(N)c1C#N)c1nc2ccc(F)cc2c(C(=O)N2CC[C@H](O)C2)c1-c1ccccc1` (stereo partly drawn) [4-Amino-6-((-1-(6-fluoro-4-(((3S)-3-hydroxy-1-pyrrolidinyl)carbonyl)-3-phenyl-2-quinolinyl)ethyl)amino)-5-pyrimidinecarbonitrile] are within 1.5-fold of each other in Ki: 1.32 nM for the first, 1.02 nM for the second.

First: N#Cc1c(N)ncnc1NCc1nc2cccc(F)c2cc1-c1cc(F)cc(F)c1 [4-Amino-6-((3-(3,5-difluorophenyl)-5-fluoroquinolin-2-yl)methylamino)pyrimidine-5-carbonitrile]
Second: N#Cc1c(N)ncnc1NCc1nc2cccc(F)c2cc1-c1cccc(F)c1 [4-Amino-6-((5-fluoro-3-(3-fluorophenyl)quinolin-2-yl)methylamino)pyrimidine-5-carbonitrile]
The Ki of the first is 2.4-fold higher: 246 nM for the first, 102 nM for the second.

`CS(=O)(=O)c1ccccc1-c1cc2c(F)cccc2nc1CNc1ncnc(N)c1C#N` [4-Amino-6-((5-fluoro-3-(2-(methylsulfonyl)phenyl)quinolin-2-yl)methylamino)pyrimidine-5-carbonitrile] and `CS(=O)(=O)c1ccccc1-c1cc2cccc(F)c2nc1CNc1ncnc(N)c1C#N` [4-Amino-6-((8-fluoro-3-(2-(methylsulfonyl)phenyl)quinolin-2-yl)methylamino)-pyrimidine-5-carbonitrile] are within 1.5-fold of each other in Ki: 39 nM for the first, 30.7 nM for the second.

First: N#Cc1c(N)ncnc1NCc1nc2cccc(F)c2cc1-c1ccccn1 [4-Amino-6-((5-fluoro-3-(pyridin-2-yl)quinolin-2-yl)methylamino)pyrimidine-5-carbonitrile]
Second: N#Cc1c(N)ncnc1NCc1nc2c(F)cccc2cc1-c1ccccn1 [4-Amino-6-((8-fluoro-3-(pyridin-2-yl)quinolin-2-yl)methyl-amino)pyrimidine-5-carbonitrile]
The Ki of the first is 1.9-fold lower: 137 nM for the first, 262 nM for the second. The first binds more tightly here.

Going from `N#Cc1c(N)ncnc1NCc1nc2cccc(F)c2cc1-c1ccccc1` [4-Amino-6-((5-fluoro-3-phenylquinolin-2-yl)methylamino)pyrimidine-5-carbonitrile] to `N#Cc1c(N)ncnc1NCc1nc2c(F)cccc2cc1-c1ccccc1` [4-Amino-6-((8-fluoro-3-phenylquinolin-2-yl)methylamino)pyrimidine-5-carbonitrile], the Ki falls from 107 nM to 12.3 nM (8.7-fold).

Compared with `C[C@H](Nc1ncnc(N)c1C#N)c1nc2cccc(Cl)c2cc1-c1ccccn1` [4-Amino-6-(((1S)-1-(5-chloro-3-(2-pyridinyl)-2-quinolinyl)ethyl)amino)-5-pyrimidinecarbonitrile], `CC(Nc1ncnc(N)c1C#N)c1nc2ccc(F)cc2c(CO)c1-c1ccccc1` (stereo not shown) [4-amino-6-(1-(6-fluoro-4-(hydroxymethyl)-3-phenylquinolin-2-yl)ethylamino)pyrimidine-5-carbonitrile] is 4.2-fold higher in Ki: 0.4 nM for the first, 1.68 nM for the second.

Compared with `C[C@H](Nc1ncnc(N)c1C#N)c1nc2ccc(F)cc2c(NCCS(C)(=O)=O)c1-c1ccccc1` [4-Amino-6-(((1S)-1-(6-fluoro-4-((2-(methylsulfonyl)ethyl)amino)-3-phenyl-2-quinolinyl)ethyl)amino)-5-pyrimidinecarbonitrile], `CC(Nc1ncnc(N)c1C#N)c1nc2ccc(F)cc2c([S@@+]([O-])CCO)c1-c1ccccc1` (stereo partly drawn) [4-amino-6-(1-(6-fluoro-4-((S)-2-hydroxyethylsulfinyl)-3-phenylquinolin-2-yl)ethylamino)pyrimidine-5-carbonitrile] is 8-fold higher in Ki: 0.226 nM for the first, 1.8 nM for the second.

In the case of `C[C@H](c1nc2ccc(F)cc2cc1-c1cncc(F)c1)n1nc(C#N)c2c(N)ncnc21` [4-amino-1-((R)-1-(6-fluoro-3-(5-fluoropyridin-3-yl)quinolin-2-yl)ethyl)-1H-pyrazolo[3,4-d]pyrimidine-3-carbonitrile], the Ki is reported as 5470 nM.

Same assay, conditions: listed as 4-amino-6-(-1-(6-fluoro-4-(((3R)-3-hydroxy-1-pyrrolidinyl)-carbonyl)-3-phenyl-2))

`CC(Nc1ncnc(N)c1C#N)c1nc2ccc(F)cc2c(C(=O)N2CC[C@@H](O)C2)c1-c1ccccc1` (stereo partly drawn) [4-Amino-6-((1-(6-fluoro-4-(((3R)-3-hydroxy-1-pyrrolidinyl)carbonyl)-3-phenyl-2-quinolinyl)ethyl)amino)-5-pyrimidinecarbonitrile] showed a Ki of 5.07 nM.
